The subject of one assay is CD69 expression. Briefly: Blockade of CD69 Expression in Human Whole Blood Samples. It is filed as cell-based. Conditions: 30 minutes pre-incubation, activation with anti-IgM, cells gated on CD20, CD69 by FACS. The protocol: Activation of the B cell receptor leads to increased BTK activity, calcium mobilization and B cell activation (see Honigberg L. A., et. al., Proc Natl Acad Sci USA. 107:13075-80. 2010). […] CD69 was expressed following B cell activation as a measure of BTK activity in whole blood. Aliquots of whole blood were pre-incubated with serial dilutions of test compound for 30 minutes followed by activation with anti-IgM (goat Fab′ 2, 50 μg/ml). Samples were incubated overnight at 37° C. and then stained with PE labeled anti-CD20 and APC labeled anti-CD69 (BD Pharmingen) for 30 minutes according to the manufacturer's directions. Whole blood was then lysed and cells gated on CD20 expression were quantified for CD 69 expression by FACS. The percent inhibition was calculated based on a DMSO control for no inhibition and plotted as a function of test compound concentration from which an IC50 value was calculated.

The target of a further assay is human recombinant BTK (Homo sapiens (Human), UniProt Q06187). Briefly: BTK Enzymatic Activity Assay (Caliper-based kinase assay). It is filed as biochemical. Conditions: human recombinant BTK (0.5 nM), ATP (16 μM), peptide substrate (1 μM), room temperature for 3 h. The protocol: A Caliper-based kinase assay (Caliper Life Sciences, Hopkinton, Mass.) was used to measure inhibition of BTK kinase activity of a compound of the present disclosure. Serial dilutions of test compounds were incubated with human recombinant BTK (0.5 nM), ATP (16 μM) and a phosphoacceptor peptide substrate FAM-GEEPLYWSFPAKKK-NH2 (1 μM) at room temperature for 3 h. The reaction was then terminated with EDTA, final concentration 20 mM and the phosphorylated reaction product was quantified on a Caliper Desktop Profiler (Caliper LabChip 3000). Percent inhibition was calculated for each compound dilution and the concentration that produced 50% inhibition was calculated. This value is presented as the IC50.

pIC50: −log10 of the molar value.

Sequence of human recombinant BTK (Q06187 whole entry): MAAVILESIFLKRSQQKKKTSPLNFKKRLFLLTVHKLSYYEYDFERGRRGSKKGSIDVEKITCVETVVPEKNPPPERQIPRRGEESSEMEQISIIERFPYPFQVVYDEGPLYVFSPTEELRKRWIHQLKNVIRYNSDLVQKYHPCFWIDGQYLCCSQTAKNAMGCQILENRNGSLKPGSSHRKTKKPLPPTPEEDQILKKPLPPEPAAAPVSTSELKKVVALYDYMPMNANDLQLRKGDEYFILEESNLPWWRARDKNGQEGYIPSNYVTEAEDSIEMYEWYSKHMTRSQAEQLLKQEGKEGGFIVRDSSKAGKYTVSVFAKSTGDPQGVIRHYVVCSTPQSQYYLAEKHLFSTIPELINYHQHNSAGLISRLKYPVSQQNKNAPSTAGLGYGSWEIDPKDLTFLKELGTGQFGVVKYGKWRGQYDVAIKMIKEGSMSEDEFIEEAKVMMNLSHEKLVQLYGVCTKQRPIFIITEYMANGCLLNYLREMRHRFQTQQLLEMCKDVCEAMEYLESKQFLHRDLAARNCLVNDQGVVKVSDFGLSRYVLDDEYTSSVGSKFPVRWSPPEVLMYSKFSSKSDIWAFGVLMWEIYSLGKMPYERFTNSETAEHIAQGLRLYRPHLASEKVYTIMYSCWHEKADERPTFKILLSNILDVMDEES

Regarding `CC(C)(C=C(C#N)C(=O)N1CCC[C@@H](n2nc(-c3ccc(Oc4ccccc4)cc3F)c3c(N)nccc32)C1)N1CCN(C2COC2)CC1` [Compound 1, (R)-2-(3-(4-amino-3-(2-fluoro-4-phenoxyphenyl)-1H-pyrazolo[4,3-c]pyridin-1-yl)piperidine-1-carbonyl)-4-methyl-4-(4-(oxetan-3-yl)piperazin-1-yl)pent-2-enenitrile], the pIC50 (commonly the IC50 on a negative log10 scale, so that one unit is a factor of ten) in the assay with CD69 expression was 6.96. In the assay with CD69 expression, `CC(C)(C=C(C#N)C(=O)N1CCC[C@@H](n2nc(-c3ccc(Oc4ccccc4)cc3F)c3c(N)nccc32)C1)N1CCN(C2(C)COC2)CC1` [Compound 7, (R)-2-(3-(4-amino-3-(2-fluoro-4-phenoxyphenyl)-1H-pyrazolo[4,3-c]pyridin-1-yl)piperidine-1-carbonyl)-4-methyl-4-(4-(3-methyloxetan-3-yl)piperazin-1-yl)pent-2-enenitrile] showed a pIC50 of 6.94. Take `CC(C)(C)C=C(C#N)C(=O)N1CCC[C@@H](n2nc(-c3ccc(Oc4ccccc4)cc3F)c3c(N)nccc32)C1` [Compound 9, (R)-2-(3-(4-amino-3-(2-fluoro-4-phenoxyphenyl)-1H-pyrazolo[4,3-c]pyridin-1-yl)piperidine-1-carbonyl)-4,4-dimethylpent-2-enenitrile]: the negative-log IC50 (pIC50) is 8.07 at human recombinant BTK and 6.28 with CD69 expression. In the case of `CN1CCN(C(C)(C)/C=C(\C#N)C(=O)N2CCC[C@@H](n3nc(-c4ccc(Oc5ccccc5)cc4F)c4c(N)nccc43)C2)CC1` [Compound 10, (R)-2-(3-(4-amino-3-(2-fluoro-4-phenoxyphenyl)-1H-pyrazolo[4,3-c]pyridin-1-yl)piperidine-1-carbonyl)-4-methyl-4-(4-methylpiperazin-1-yl)pent-2-enenitrile], the results for the negative-log IC50 (pIC50) at human recombinant BTK and in the assay with CD69 expression were 8.72 and 6.54, respectively. In turn, `CN(C1COC1)C(C)(C)C=C(C#N)C(=O)N1CCC[C@@H](n2nc(-c3ccc(Oc4ccccc4)cc3F)c3c(N)nccc32)C1` [Compound 14, (R)-2-(3-(4-amino-3-(2-fluoro-4-phenoxyphenyl)-1H-pyrazolo[4,3-c]pyridin-1-yl)piperidine-1-carbonyl)-4-methyl-4-(methyl(oxetan-3-yl)amino)pent-2-enenitrile] gave a pIC50 with CD69 expression of 6.74.

As to `CC1(C=C(C#N)C(=O)N2CCC[C@@H](c3nc(-c4ccc(Oc5ccccc5)cc4)c4c(N)nccn34)C2)CCOCC1` [Compound 54, (R)-2-(3-(8-amino-1-(4-phenoxyphenyl)imidazo[1,5-a]pyrazin-3-yl)piperidine-1-carbonyl)-3-(4-methyltetrahydro-2H-pyran-4-yl)acrylonitrile], the pIC50 on human recombinant BTK is 8.77. Still for that read-out and setting: to `COC(=O)N1CCN(C(C)(C)C=C(C#N)C(=O)N2CCC[C@@H](c3nc(-c4ccc(Oc5ccccc5)cc4)c4c(N)nccn34)C2)CC1` [Compound 56, (R)-methyl 4-(5-(3-(8-amino-1-(4-phenoxyphenyl)imidazo[1,5-a]pyrazin-3-yl)piperidin-1-yl)-4-cyano-2-methyl-5-oxopent-3-en-2-yl)piperazine-1-carboxylate] belongs 8.92; to `CC(=O)N1CCN(C(C)(C)C=C(C#N)C(=O)N2CCC[C@@H](c3nc(-c4ccc(Oc5ccccc5)cc4)c4c(N)nccn34)C2)CC1` [Compound 57, (R)-4-(4-acetylpiperazin-1-yl)-2-(3-(8-amino-1-(4-phenoxyphenyl)imidazo[1,5-a]pyrazin-3-yl)piperidine-1-carbonyl)-4-methylpent-2-enenitrile], 8.96. On the same count and under the same terms, the same measure for `COC(=O)N1CCN(C(C)(C)C=C(C#N)C(=O)N2CCC[C@@H](c3nc(-c4ccc(Oc5ccccc5)cc4F)c4c(N)nccn34)C2)CC1` [Compound 58, (R)-methyl 4-(5-(3-(8-amino-1-(2-fluoro-4-phenoxyphenyl)imidazo[1,5-a]pyrazin-3-yl)piperidin-1-yl)-4-cyano-2-methyl-5-oxopent-3-en-2-yl)piperazine-1-carboxylate]: 8.55. Still for that read-out and setting: to `CC(=O)N1CCN(C(C)(C)C=C(C#N)C(=O)N2CCC[C@@H](c3nc(-c4ccc(Oc5ccccc5)cc4F)c4c(N)nccn34)C2)CC1` [Compound 59, (R)-4-(4-acetylpiperazin-1-yl)-2-(3-(8-amino-1-(2-fluoro-4-phenoxyphenyl)imidazo[1,5-a]pyrazin-3-yl)piperidine-1-carbonyl)-4-methylpent-2-enenitrile] belongs 8.85; to `CC(C)(C=C(C#N)C(=O)N1CCC[C@@H](c2nc(-c3ccc(Oc4ccccc4)cc3F)c3c(N)nccn23)C1)N1CCN2C(=O)CC[C@H]2C1` [Compound 62, 2-((R)-3-(8-amino-1-(2-fluoro-4-phenoxyphenyl)imidazo[1,5-a]pyrazin-3-yl)piperidine-1-carbonyl)-4-methyl-4-((S)-6-oxohexahydropyrrolo[1,2-a]pyrazin-2(1H)-yl)pent-2-enenitrile], 8.66; to `CC(C)(C=C(C#N)C(=O)N1CCC[C@@H](c2nc(-c3ccc(Oc4ccccc4)cc3F)c3c(N)nccn23)C1)N1CCN2C(=O)CC[C@@H]2C1` [Compound 63, 2-((R)-3-(8-amino-1-(2-fluoro-4-phenoxyphenyl)imidazo[1,5-a]pyrazin-3-yl)piperidine-1-carbonyl)-4-methyl-4-((R)-6-oxohexahydropyrrolo[1,2-a]pyrazin-2(1H)-yl)pent-2-enenitrile], 9.05. Turning to `CC(C)(C=C(C#N)C(=O)N1CCC[C@@H](c2nc(-c3ccc(Oc4ccccc4)cc3)c3c(N)nccn23)C1)N1CCN2C(=O)CC[C@H]2C1` [Compound 64, 2-((R)-3-(8-amino-1-(4-phenoxyphenyl)imidazo[1,5-a]pyrazin-3-yl)piperidine-1-carbonyl)-4-methyl-4-((S)-6-oxohexahydropyrrolo[1,2-a]pyrazin-2(1H)-yl)pent-2-enenitrile], the negative logarithm of the IC50 (pIC50) on human recombinant BTK is 9.10. On to `CC(C)(C=C(C#N)C(=O)N1CCC[C@@H](c2nc(-c3ccc(Oc4ccccc4)cc3)c3c(N)nccn23)C1)N1CCN2C(=O)CC[C@@H]2C1` [Compound 65, 2-((R)-3-(8-amino-1-(4-phenoxyphenyl)imidazo[1,5-a]pyrazin-3-yl)piperidine-1-carbonyl)-4-methyl-4-((R)-6-oxohexahydropyrrolo[1,2-a]pyrazin-2(1H)-yl)pent-2-enenitrile], for which the pIC50 on human recombinant BTK is 9.22. The same measure, in the same setting: the same measure for `CN1CCN(C(=O)C(C#N)=CC(C)(C)C)C[C@@H]1c1nc(-c2ccc(Oc3ccccc3)cc2)c2c(N)nccn12` [Compound 66, (R)-2-(3-(8-amino-1-(4-phenoxyphenyl)imidazo[1,5-a]pyrazin-3-yl)-4-methylpiperazine-1-carbonyl)-4,4-dimethylpent-2-enenitrile]: 9.52; for `CN1CCN(C(=O)C(C#N)=CC2(C)CCOCC2)C[C@@H]1c1nc(-c2ccc(Oc3ccccc3)cc2)c2c(N)nccn12` [Compound 67, (R)-2-(3-(8-amino-1-(4-phenoxyphenyl)imidazo[1,5-a]pyrazin-3-yl)-4-methylpiperazine-1-carbonyl)-3-(4-methyltetrahydro-2H-pyran-4-yl)acrylonitrile]: 9.70. Regarding `CN1CCN(C(C)(C)C=C(C#N)C(=O)N2CCC[C@@H](n3nc(-c4ccc(Oc5ccccc5)cc4F)c4c(N)nccc43)C2)CC1=O` [Compound 72, (R)-2-(3-(4-amino-3-(2-fluoro-4-phenoxyphenyl)-1H-pyrazolo[4,3-c]pyridin-1-yl)piperidine-1-carbonyl)-4-methyl-4-(4-methyl-3-oxopiperazin-1-yl)pent-2-enenitrile], on human recombinant BTK, the negative logarithm of the IC50 (pIC50) is 8.70.

The record behind these values is patent publication US11155544B2, “Heterocycle comprising tyrosine kinase inhibitors” (Principia Biopharma Inc., priority 2015, dated 2021).
